# In patent US12240841B2, “FXR small molecule agonist and preparation method therefor and use thereof” (Shanghai Institute of Materia Medica, Chinese Academy of …, priority 2019, dated 2025):
# Tests used:
# [1] = biological target: T1, recombinant GST-FXR fusion protein (Homo sapiens, UniProt Q96RI1); test: FXR activity at the molecular level (AlphaScreen); format: biochemical
# T1 sequence (Q96RI1 1-486): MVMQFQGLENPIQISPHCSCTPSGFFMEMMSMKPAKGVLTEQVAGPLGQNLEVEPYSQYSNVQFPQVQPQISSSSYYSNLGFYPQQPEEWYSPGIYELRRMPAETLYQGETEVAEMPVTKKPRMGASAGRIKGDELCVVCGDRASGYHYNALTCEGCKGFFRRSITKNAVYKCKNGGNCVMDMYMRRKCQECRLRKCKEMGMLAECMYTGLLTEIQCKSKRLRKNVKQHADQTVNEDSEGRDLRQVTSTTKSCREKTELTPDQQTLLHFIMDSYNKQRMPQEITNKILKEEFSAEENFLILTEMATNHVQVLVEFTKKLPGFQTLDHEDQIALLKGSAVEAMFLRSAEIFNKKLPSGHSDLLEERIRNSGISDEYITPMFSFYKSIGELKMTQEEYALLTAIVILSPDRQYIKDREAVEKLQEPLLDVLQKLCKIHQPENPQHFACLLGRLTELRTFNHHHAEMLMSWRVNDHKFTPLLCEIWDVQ
# Protocol: Test Method for FXR Activity at the Molecular Level
# FXR activity was determined using recombinant GST-FXR fusion protein by Perkin Elmer's AlphaScreen detection reagent. The reaction in this method was carried out in a 384-well plate, and the total reaction volume was 15 μL. The mixture of protein, agonist, co-regulatory factor, AlphaScreen® acceptor beads and AlphaScreen® donor beads was reacted in a buffer containing Tris-HCl 50 mM (pH7.4), 50 mM NaCl, BSA 0.1%, and 1 mM DTT. The FXR activity was reflected by the fluorescence signal intensity at 570 nm wavelength detected by the Envision fluorescence detector. The value of EC50 was calculated by the software Graphpad Prism 5.
# FXR receptor = biological target: T2, FXR receptor (Homo sapiens, UniProt Q96RI1); test: FXR activity at the cell level (FXRE luciferase reporter in 293T cells); format: cell-based; conditions: 293T cells; for Activity relative to OCA (%) 10 μM: luciferase reporter; for EC50: FXRE luciferase reporter, read-out: EC50 (cell level)
# T2 construct: expressed in transfected cells; host or cells: 293T cells
# T2 sequence (Q96RI1 1-486): T1 sequence (Q96RI1 1-486)
# Protocol: The cells were cultured for 24 hours to ensure plasmid expression. Then the FXR receptor agonist to be tested was added and acted for 18 hours. The fluorescence intensity was detected using luciferase kit (steady-Glo Luciferase Assay system) to reflect the compound's activation efficiency on the FXR receptor. […] The appropriate concentration interval was selected, and the dose-dependent relationship, that is, the EC50 value, was calculated.
# [2] = system: TAA-induced hepatic fibrosis model rats; test: TAA-induced hepatic fibrosis model rats; format: in vivo, rat
# Protocol: 1) Pharmacodynamic Evaluation of Compound 1 (LXF-32) on TAA-Induced Hepatic Fibrosis Model Rats
# In this experiment, TAA induced hepatic fibrosis model rats were used to investigate the effect of long-term oral administration of compound 1 on hepatic fibrosis in the model rats.
# Experimental method: Male SD rats were intraperitoneally injected with thioacetamide (TAA, dissolved in normal saline) at a dose of 150 mg/kg three times a week to induce a liver fibrosis model. Four weeks after the model was made, the blood was taken from the retro-ocular venous plexus of the rats to detect serum ALP indicators. […] During the administration period, the animal's food intake and body weight were monitored. After 2 weeks of administration, the blood was taken from the retro-ocular venous plexus of the rats to detect serum ALP indicators. After 4 weeks of administration, the blood was taken from the retro-ocular venous plexus and the rats were dislocated and sacrificed. The livers were taken out and weighed. Part of the liver was fixed with 4% paraformaldehyde, and part of the liver was frozen at −80° C. During the whole experiment, another 8 rats in the same cage were injected intraperitoneally with the same volume of normal saline as the system normal control group (WT). This experiment detected indicators such as the level of liver function index ALP in serum, the expression of α-SMA and Col1α1 (fibrosis-related genes) gene level in the liver, the content of hydroxyproline (a characteristic amino acid of collagen) in the liver, and the pathological changes of the liver (Sirius scarlet stain), etc., thereby reflecting whether the compound has the effect of relieving liver fibrosis.
# [3] = system: CCL4-induced hepatic fibrosis model mice; test: CCL4-induced hepatic fibrosis model mice; format: in vivo, mouse
# Protocol: In this experiment, CCL4 induced hepatic fibrosis model mice were used to investigate the effect of long-term oral administration of compound 8 on hepatic fibrosis in the model mice.
# Experimental method: Male C57BL/6j mice were injected intraperitoneally with 2 mL/kg, 10% CCl4 (dissolved in olive oil) three times a week to induce liver fibrosis model. Two weeks after the model was made, the blood was taken from the retro-ocular venous plexus of the mice to detect serum ALT, AST, TBA and LDH indicators. According to ALT, AST, TBA, LDH, body weight and other indicators, the mice were randomly divided into 5 groups. […] During the administration period, the animals' food intake and body weight were monitored. After 3 weeks of administration, the blood was taken from the retro-ocular venous plexus of the mice to detect serum ALT, AST, TBA and LDH indicators. After 6 weeks of administration, the blood was taken from the retro-ocular venous plexus and the mice were dislocated and sacrificed. The livers were taken out and weighed. Part of the liver was fixed with 4% paraformaldehyde, and part of the liver was frozen at −80° C. During the whole experiment, another 10 mice in the same cage were intraperitoneally injected with the same volume of olive oil as the system normal control group (WT).
# This experiment detected indicators such as the levels of liver function indicators ALT, AST, TBA, LDH in serum, the expression of α-SMA and Col1α1 gene levels in the liver, and the pathological changes of the liver (Sirius scarlet stain), etc., thereby reflecting whether the compound has the effect of relieving liver fibrosis.
# [4] = 20 mg/kg oral once a day, 4 weeks
# [5] = high-dose 20 mg/kg oral once a day, 6 weeks
# [6] = low-dose 6 mg/kg oral once a day, 6 weeks
structure (smiles),measurement,setting,value
O=c1[nH]c(-c2cccc(N3CCC(OCc4c(-c5c(Cl)cccc5Cl)noc4C4CC4)CC3)c2)no1 [Example 1],EC50,[1],446 nM
same,Activity relative to OCA (%) 10 μM,FXR receptor,109%
same,EC50,FXR receptor,110 nM
same,collagen content in the liver (Sirius scarlet stained sections),[2]; [4],"reduced the collagen content in the liver, because there were large differences within the model group, and there was no statistical difference"
same,content of hydroxyproline in liver tissue,[2]; [4],reduced
same,expression of Col1α1 mRNA in liver tissue,[2]; [4],significantly down-regulated
same,expression of α-SMA mRNA in liver tissue,[2]; [4],significantly down-regulated
same,level of ALP in serum,"[2]; 20 mg/kg oral once a day, 4 weeks, vs model control",significantly reduced
same,effect on liver fibrosis (summary),[2]; long-term administration,a certain alleviating effect
O=c1[nH]c(-c2ccc(N3CCC(OCc4c(-c5ccccc5C(F)(F)F)noc4C4CC4)CC3)cc2)no1 [Example 8],EC50,[1],104 nM
same,Activity relative to OCA (%) 10 μM,FXR receptor,88%
same,EC50,FXR receptor,5 nM
same,collagen content in the liver (Sirius scarlet stained sections),[3]; high-dose 20 mg/kg,significantly reduced
same,effect on LDH in serum,[3]; [5],little effect
same,level of ALT in serum,[3]; [5],significantly reduced
same,level of AST in serum,[3]; [5],significantly reduced
same,level of TBA in serum,[3]; [5],significantly reduced
same,expression of col1α1 in the liver,"[3]; high-dose 20 mg/kg, 6 weeks",down-regulated
same,expression of α-SMA in the liver,"[3]; high-dose 20 mg/kg, 6 weeks",significantly down-regulated
same,effect on liver fibrosis (summary),[3]; long-term administration,a certain alleviating effect
same,collagen content in the liver (Sirius scarlet stained sections),[3]; low-dose 6 mg/kg,significantly reduced
same,effect on liver collagen content compared with the low-dose OCA group,[3]; low-dose 6 mg/kg,slightly better
same,effect on LDH in serum,[3]; [6],little effect
same,level of ALT in serum,[3]; [6],significantly reduced
same,level of AST in serum,[3]; [6],significantly reduced
same,level of TBA in serum,[3]; [6],significantly reduced
same,effect on serum liver function indicators compared with the low-dose OCA group,"[3]; low-dose 6 mg/kg, 6 weeks",slightly better
O=c1[nH]c(-c2ccc(N3C4CCC3CC(OCc3c(-c5ccccc5C(F)(F)F)noc3C3CC3)C4)cc2F)no1 (stereo not shown) [Example 37],EC50,[1],50.6 nM
same,Activity relative to OCA (%) 10 μM,FXR receptor,102%
same,EC50,FXR receptor,0.284 nM
O=c1[nH]c(-c2ccc(N3C4CCC3CC(OCc3c(-c5ccccc5OC(F)(F)F)noc3C3CC3)C4)cc2F)no1 (stereo not shown) [Example 38],EC50,[1],51.3 nM
same,Activity relative to OCA (%) 10 μM,FXR receptor,102%
same,EC50,FXR receptor,0.304 nM
O=c1[nH]c(-c2ccc(N3C4CCC3CC(OCc3c(-c5ccccc5OC(F)F)noc3C3CC3)C4)nc2)no1 (stereo not shown) [Example 39],EC50,[1],25 nM
same,Activity relative to OCA (%) 10 μM,FXR receptor,108%
same,EC50,FXR receptor,1.49 nM
Cc1ccccc1-c1noc(C2CC2)c1COC1CC2CCC(C1)N2c1ccc(-c2noc(=O)[nH]2)cn1 (stereo not shown) [Example 40],EC50,[1],94.4 nM
same,Activity relative to OCA (%) 10 μM,FXR receptor,105%
same,EC50,FXR receptor,2.11 nM
O=c1[nH]c(-c2ccc(N3C4CCC3CC(OCc3c(-c5ccccc5OC(F)F)noc3C3CC3)C4)cc2F)no1 (stereo not shown) [Example 41],EC50,[1],28.5 nM
same,Activity relative to OCA (%) 10 μM,FXR receptor,108%
same,EC50,FXR receptor,0.718 nM
Cc1ccccc1-c1noc(C2CC2)c1COC1CC2CCC(C1)N2c1ccc(-c2noc(=O)[nH]2)c(F)c1 (stereo not shown) [Example 42],EC50,[1],80.4 nM
same,Activity relative to OCA (%) 10 μM,FXR receptor,106%
same,EC50,FXR receptor,0.96 nM
"CC[C@H]1[C@@H](O)[C@@H]2[C@H](CC[C@]3(C)[C@@H]([C@H](C)CCC(=O)O)CC[C@@H]23)[C@@]2(C)CC[C@@H](O)C[C@@H]12 [OCA, reference compound]",level of ALT in serum,[3]; [5],significantly reduced
same,level of AST in serum,[3]; [5],significantly reduced
same,level of TBA in serum,[3]; [5],significantly reduced
same,level of TBA in serum,[3]; [6],lowering effect
